In data set [1] the target is T1, human NTPDase1 (Homo sapiens, UniProt P49961).
T1 sequence (P49961 1-510): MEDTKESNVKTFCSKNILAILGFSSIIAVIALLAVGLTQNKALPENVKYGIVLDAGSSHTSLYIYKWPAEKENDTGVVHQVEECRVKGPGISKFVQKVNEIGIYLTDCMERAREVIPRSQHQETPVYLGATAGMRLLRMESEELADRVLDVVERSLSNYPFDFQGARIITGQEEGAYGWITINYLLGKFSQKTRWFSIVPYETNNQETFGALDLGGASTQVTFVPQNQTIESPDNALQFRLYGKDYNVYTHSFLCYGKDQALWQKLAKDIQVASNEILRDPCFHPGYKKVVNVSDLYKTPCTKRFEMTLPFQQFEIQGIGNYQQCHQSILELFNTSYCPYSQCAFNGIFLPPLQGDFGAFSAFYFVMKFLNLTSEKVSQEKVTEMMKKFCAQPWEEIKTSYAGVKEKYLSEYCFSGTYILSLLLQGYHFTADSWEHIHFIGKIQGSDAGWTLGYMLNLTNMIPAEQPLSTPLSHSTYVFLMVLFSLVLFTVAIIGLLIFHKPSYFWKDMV
Put plainly: Inhibition of NTPDase1 activity. As to conditions: for effect on human NTPDase1 activity: Table 5, ATP and analogue 100 μM, 100% activity = ATP alone, read as inhibition; for inhibition of the hydrolysis of ATP by NTPDase1: analogue and ATP 100 μM.

Data set [2] concerns the target T2, human NTPDase8 (Homo sapiens, UniProt Q5MY95).
T2 construct: made in house; host or cells: COS-7 cells (transfected; protein extract)
T2 sequence (Q5MY95 1-495): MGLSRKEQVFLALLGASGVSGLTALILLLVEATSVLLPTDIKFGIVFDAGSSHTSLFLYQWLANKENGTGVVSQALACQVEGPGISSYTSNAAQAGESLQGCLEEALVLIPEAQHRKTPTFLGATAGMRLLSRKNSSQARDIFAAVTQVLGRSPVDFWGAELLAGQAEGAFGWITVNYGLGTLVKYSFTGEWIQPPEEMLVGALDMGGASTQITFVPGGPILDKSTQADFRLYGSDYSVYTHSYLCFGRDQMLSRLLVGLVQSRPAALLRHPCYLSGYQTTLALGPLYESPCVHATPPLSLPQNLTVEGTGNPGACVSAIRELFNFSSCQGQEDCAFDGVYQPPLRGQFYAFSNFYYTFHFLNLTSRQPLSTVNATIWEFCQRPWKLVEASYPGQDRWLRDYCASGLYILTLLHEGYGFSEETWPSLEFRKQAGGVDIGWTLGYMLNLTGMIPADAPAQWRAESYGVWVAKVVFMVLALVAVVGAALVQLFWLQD
Put plainly: Hydrolysis by human NTPDase8. Format: in vitro ADME. The settings on record: for Hydrolysis by NTPDase8: 100 μM, 1 h, activity with 100 μM ATP = 100%.

Data set [3] has as its target T1, human NTPDase1. Put plainly: Hydrolysis by human NTPDase1. It is filed as in vitro ADME. More on the design: made in house; host or cells: COS-7 cells (transfected; protein extract). As to conditions: for Hydrolysis by NTPDase1: 100 μM, 1 h, activity with 100 μM ATP = 100%.
The target in data set [4] is T3, human NTPDase2 (Homo sapiens, UniProt Q9Y5L3).
T3 construct: made in house; host or cells: COS-7 cells (transfected; protein extract)
T3 sequence (Q9Y5L3 1-495): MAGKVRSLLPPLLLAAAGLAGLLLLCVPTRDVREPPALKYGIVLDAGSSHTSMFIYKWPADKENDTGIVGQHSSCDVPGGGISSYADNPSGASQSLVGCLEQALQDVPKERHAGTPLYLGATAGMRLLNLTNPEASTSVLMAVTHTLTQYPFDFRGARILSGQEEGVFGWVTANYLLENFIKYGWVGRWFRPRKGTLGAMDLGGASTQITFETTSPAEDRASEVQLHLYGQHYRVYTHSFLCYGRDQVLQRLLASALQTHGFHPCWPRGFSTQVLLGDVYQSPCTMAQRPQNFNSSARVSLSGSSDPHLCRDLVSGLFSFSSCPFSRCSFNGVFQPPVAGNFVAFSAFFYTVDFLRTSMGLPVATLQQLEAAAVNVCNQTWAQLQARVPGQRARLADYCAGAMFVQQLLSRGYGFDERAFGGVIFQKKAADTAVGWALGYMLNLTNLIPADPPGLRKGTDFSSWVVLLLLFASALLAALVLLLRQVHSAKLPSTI
Put plainly: Hydrolysis by human NTPDase2. Format: in vitro ADME. The settings on record: for Hydrolysis by NTPDase2: 100 μM, 1 h, activity with 100 μM ATP = 100%.

For data set [5], the target named is T2, human NTPDase8. Put plainly: Inhibition of NTPDase8 activity. Format: biochemical. As to conditions: for effect on human NTPDase8 activity: Table 5, ATP and analogue 100 μM, 100% activity = ATP alone; for inhibition of the hydrolysis of ATP by NTPDase8: analogue and ATP 100 μM.
Data set [6] addresses T4, human NTPDase3 (Homo sapiens, UniProt O75355).
T4 sequence (O75355 1-529): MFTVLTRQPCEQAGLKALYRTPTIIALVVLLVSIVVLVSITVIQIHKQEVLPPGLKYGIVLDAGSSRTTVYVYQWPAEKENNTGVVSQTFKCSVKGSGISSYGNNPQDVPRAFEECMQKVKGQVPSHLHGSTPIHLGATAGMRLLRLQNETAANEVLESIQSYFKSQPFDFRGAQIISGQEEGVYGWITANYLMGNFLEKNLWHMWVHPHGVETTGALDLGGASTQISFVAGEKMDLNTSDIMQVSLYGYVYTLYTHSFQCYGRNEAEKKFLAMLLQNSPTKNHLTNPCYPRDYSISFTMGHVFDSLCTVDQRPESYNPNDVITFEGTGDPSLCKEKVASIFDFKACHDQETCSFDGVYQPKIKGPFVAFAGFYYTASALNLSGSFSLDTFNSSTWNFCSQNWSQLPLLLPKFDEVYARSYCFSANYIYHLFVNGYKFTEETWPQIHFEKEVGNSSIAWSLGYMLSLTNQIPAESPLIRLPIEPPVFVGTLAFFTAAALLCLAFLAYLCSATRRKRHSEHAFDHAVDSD
Put plainly: Inhibition of NTPDase3 activity. As to conditions: for effect on human NTPDase3 activity: Table 5, ATP and analogue 100 μM, 100% activity = ATP alone; for inhibition of the hydrolysis of ATP by NTPDase3: analogue and ATP 100 μM.

Consider `Nc1ncnc2c1ncn2[C@@H]1O[C@H](COP(O)(=S)OP(=O)(O)C(Cl)(Cl)P(=O)(O)O)[C@@H](O)[C@H]1O` (single isomer, unassigned; isomer a) [APPCCl2P-α-S (isomer A), adenosine 5′-[Pα-thio]-β,γ-(dichloromethylene)triphosphate], for which the “effect on human NTPDase1 activity” value in data set [1] (listed as APPCCl2P-α-S A) was 0.5 ± 0.01%. Moreover, the “inhibition of the hydrolysis of ATP by NTPDase1” value (from here on “inhibition … by NTPDase1”) in data set [1] is recorded as “did not interfere”. Besides, the “Hydrolysis by NTPDase8” value in data set [2] (listed as APPCCl2P-α-S A) is listed as 4.3 ± 0.1%. The “Hydrolysis by NTPDase1” value in data set [3] (listed as APPCCl2P-α-S A) stood at 5.3 ± 0.2%. Further, the “Hydrolysis by NTPDase2” value in data set [4] (listed as APPCCl2P-α-S A) came to 5.2 ± 0.1%. The “effect on human NTPDase8 activity” value in data set [5] (listed as APPCCl2P-α-S A) was 4.9 ± 0.2%. Moreover, the “inhibition of the hydrolysis of ATP by NTPDase8” value (shortened to “inhibition … by NTPDase8”) in data set [5] is reported as “did not interfere”. Moreover, the “effect on human NTPDase3 activity” value in data set [6] (listed as APPCCl2P-α-S A) worked out at 21.8 ± 1.0%. The “inhibition of the hydrolysis of ATP by NTPDase3” value (“inhibition … by NTPDase3” below) in data set [6] is “did not interfere”.
With `Nc1ncnc2c1ncn2[C@@H]1O[C@H](COP(O)(=S)OP(=O)(O)CP(=O)(O)O)[C@@H](O)[C@H]1O` (single isomer, unassigned; isomer a) [APPCP-α-S (isomer A), adenosine 5′-[Pα-thio]-β,γ-methylenetriphosphate], the “effect on human NTPDase1 activity” value in data set [1] (listed as APPCP-α-S A) is 58.4 ± 2.1%. In data set [1], the “inhibition … by NTPDase1” value is listed as “did not interfere”. The “Hydrolysis by NTPDase8” value in data set [2] (listed as APPCP-α-S A) came out at 4.4%. Also, in data set [3] (listed as APPCP-α-S A), the “Hydrolysis by NTPDase1” value is listed as 4.4%. Also, in data set [4] (listed as APPCP-α-S A), the “Hydrolysis by NTPDase2” value was determined as 4.7%. Further, the “effect on human NTPDase8 activity” value in data set [5] (listed as APPCP-α-S A) stood at 7.0 ± 0.3%. In addition, the “inhibition … by NTPDase8” value in data set [5] is given as “did not interfere”. Further, in data set [6] (listed as APPCP-α-S A), the “effect on human NTPDase3 activity” value worked out at 40.2 ± 2.0%. In addition, the “inhibition … by NTPDase3” value in data set [6] is on record as “did not interfere”.
In the case of `Nc1ncnc2c1ncn2[C@@H]1O[C@H](COP(O)(=S)OP(=O)(O)C(Cl)(Cl)P(=O)(O)O)[C@@H](O)[C@H]1O` (single isomer, unassigned; isomer b) [APPCCl2P-α-S (isomer B), adenosine 5′-[Pα-thio]-β,γ-(dichloromethylene)triphosphate], the “effect on human NTPDase1 activity” value in data set [1] (listed as APPCCl2P-α-S B) is on record as 21.6 ± 1.0%. Also, the “inhibition … by NTPDase1” value in data set [1] is given as “did not interfere”. In data set [2] (listed as APPCCl2P-α-S B), the “Hydrolysis by NTPDase8” value is reported as 5.3%. Moreover, in data set [3] (listed as APPCCl2P-α-S B), the “Hydrolysis by NTPDase1” value came out at 5.4%. For the same molecule, the “Hydrolysis by NTPDase2” value in data set [4] (listed as APPCCl2P-α-S B) is given as 5.5%. Besides, the “effect on human NTPDase8 activity” value in data set [5] (listed as APPCCl2P-α-S B) is given as 1.5 ± 0.06%. Moreover, in data set [5], the “inhibition … by NTPDase8” value is on record as “did not interfere”. Besides, the “effect on human NTPDase3 activity” value in data set [6] (listed as APPCCl2P-α-S B) is given as 24.0 ± 1.2%. In addition, in data set [6], the “inhibition … by NTPDase3” value is given as “did not interfere”.
Turning to `Nc1ncnc2c1ncn2[C@@H]1O[C@H](COP(O)(=S)OP(=O)(O)CP(=O)(O)O)[C@@H](O)[C@H]1O` (single isomer, unassigned; isomer b) [APPCP-α-S (isomer B), adenosine 5′-[Pα-thio]-β,γ-methylenetriphosphate], the “effect on human NTPDase1 activity” value in data set [1] (listed as APPCP-α-S B) turned out to be 0.5 ± 0.02%. Also, the “inhibition … by NTPDase1” value in data set [1] was “did not interfere”. Besides, the “Hydrolysis by NTPDase8” value in data set [2] (listed as APPCP-α-S B) was found to be 5.3 ± 0.2%. Further, in data set [3] (listed as APPCP-α-S B), the “Hydrolysis by NTPDase1” value is given as 5.4 ± 0.2%. In data set [4] (listed as APPCP-α-S B), the “Hydrolysis by NTPDase2” value turned out to be 5.5 ± 0.3%. For the same molecule, the “effect on human NTPDase8 activity” value in data set [5] (listed as APPCP-α-S B) worked out at 0.5 ± 0.01%. Also, in data set [5], the “inhibition … by NTPDase8” value is on record as “did not interfere”. Besides, the “effect on human NTPDase3 activity” value in data set [6] (listed as APPCP-α-S B) is recorded as 18.7 ± 0.8%. Also, the “inhibition … by NTPDase3” value in data set [6] is “did not interfere”.
In the case of `Nc1ncnc2c1ncn2[C@@H]1O[C@H](COP(=O)(O)OP(O)(O)=S)[C@@H](O)[C@H]1O` [ADP-β-S, adenosine 5′-[β-thio]diphosphate, reference compound], the “inhibition … by NTPDase1” value in data set [1] was “less than 50%”. In addition, the “Relative hydrolysis by NTPDase8” value in data set [2] is 14 ± 0.1 % ± SD of ADP or AP2A hydrolysis. In addition, in data set [5], the “inhibition … by NTPDase8” value is recorded as “less than 50%”. In data set [6], the “inhibition … by NTPDase3” value is given as “less than 50%”.
With `Nc1ncnc2c1ncn2[C@@H]1O[C@H](COP(=O)(O)CP(=O)(O)OP(O)(O)=S)[C@@H](O)[C@H]1O` [APCPP-γ-S, adenosine 5′-[Pγ-thio]-α,β-methylenetriphosphate], the “effect on human NTPDase1 activity” value in data set [1] turned out to be 18.7 ± 0.8%. The “Hydrolysis by NTPDase8” value in data set [2] is 5.2 ± 0.2%. Also, the “Hydrolysis by NTPDase1” value in data set [3] stood at 5.3 ± 0.2%. Also, the “Hydrolysis by NTPDase2” value in data set [4] is listed as 4.7 ± 0.2%. Moreover, the “effect on human NTPDase8 activity” value in data set [5] is reported as 0.50 ± 0.02%. In addition, the “effect on human NTPDase3 activity” value in data set [6] is 26.8 ± 1.1%.
adenosine-5′-tetrathiobisphosphonate: the “inhibition … by NTPDase1” value in data set [1] stood at 54%. The “Relative hydrolysis by NTPDase8” value in data set [2] was 7 ± 1 % ± SD of ADP or AP2A hydrolysis. Further, the “Relative hydrolysis by NTPDase1” value in data set [3] is reported as 1 ± 0.2 % ± SD of ADP or AP2A hydrolysis. Moreover, the “Relative hydrolysis by NTPDase2” value in data set [4] was 1 ± 0.2 % ± SD of ADP or AP2A hydrolysis. In addition, the “inhibition … by NTPDase8” value in data set [5] was 49%.
Take “di-adenosine-5′,5″-tetrathiobisphosphonate”: the “inhibition … by NTPDase1” value in data set [1] is recorded as about 60%. Also, the “Relative hydrolysis by NTPDase8” value in data set [2] is recorded as 3.0 ± 0.1 % ± SD of ADP or AP2A hydrolysis. In addition, the “inhibition … by NTPDase8” value in data set [5] was 5-20%. Also, the “inhibition … by NTPDase3” value in data set [6] is 5-20%.

Source of the values: patent US20140378408A1, “NUCLEOSIDE 5'-PHOSPHOROTHIOATE ANALOGUES AND USES THEREOF” (BAR-ILAN UNIVERSITY, an Israeli University, priority 2012, published 2014).
